According to patent publication US20250248926A1, “AN INJECTABLE MICROPARTICLE SYSTEM AND METHOD OF PREPARING THEREOF” (AMRITA VISHWA VIDYAPEETHAM, priority 2022, published 2025):
Where two headings read alike, the source gives them in different places.

Assays:
[1] = by 3rd hour, CT
Method: Contrast agent Iodine loaded microstructures are injected in left and right hemispheres of a goat brain phantom and imaged over 4 hours using MicroCT (FIG. 21 (A-E)).
Iodine loaded microstructures (in the form of injectable gels) are injected in left and right hemispheres of a goat brain phantom and imaged over 4 hours using CT (FIG. 21 (A-E)).

[2] = rat brain
Method: 200-250 g Wistar rats (female) were selected for the study. Respective microparticle gel was injected (10 μl/1 mg BCNU) injected at coordinates 2 mm lateral, 2 mm anterior and 2 mm depth using stereotactic equipment. Animals were euthanized 3, 7 and 15 days post injection, brains were excised and stored at −80° C. Each brain was sliced into 1 mm sections and each section was homogenized in 1 ml MilliQ water (pH 4) and precipitated using 10 ml Ethanol. The samples are centrifuged at 10000 rpm for 15 minutes for drug extraction (repeated 4 times). The solvents are evaporated using a vacuum centrifuge and then remnant pellets are analyzed for their drug content using HPLC.

[3] = tested on: C6 (rat glioma) cells; test: In vitro cytotoxicity, MTT assay, C6 cells; format: cell-based
Method: (§1) Cells of seeding density 4×10^4 cells/well were treated with concentrations from 1 μM-100 μM of BCNU or PL loaded microstructures 24 hours post seeding. MTT assay was performed 96 hours post treatment. […] With radiation, the cell viability of non-drug treated controls reduced by ˜60%.

[4] = tested on: T98G (human glioma) cells; test: In vitro cytotoxicity, MTT assay, T98G cells; format: cell-based; conditions: 100 μM (highest concentration), MTT 96 hours post treatment
Method: as §1

II [Free iodine]
diffusion [1]: 1.6 cm

O=NN(CCCl)C(=O)NCCCl [free BCNU, 1,3-Bis(2-chloroethyl)-1-nitrosourea]
drug in brain ([2]; day-3 post intracranial injection): 15%
drug in brain ([2]; day-15 post intracranial injection): 3.9%
viability at 100 µM ([3]; Rattus norvegicus, C6, 96 h, read-out: cells viable (cell viability)): ~20%

COc1cc(/C=C/C(=O)N2CCC=CC2=O)cc(OC)c1OC [free PL, Piperlongumine]
cells viable (cell viability) ([3]; C6 cells, 100 μM, MTT 96 hours post treatment): ~3%
cells remaining (cell viability) [4]: 16.6%
